Experimental findings from US20110172223A1, “Substituted Aryl Sulfone Derivatives as Calcium Channel Blockers” (priority 2008, published 2011) are described below.

Assay [1] has as its target T1, N-type calcium channel (CaV2.2) (Homo sapiens, UniProt Q00975).
T1 construct: expressed in transfected cells
Put plainly: N-type calcium channel antagonist activity in the aforementioned assays (Assay Examples 1-3: fluorescent, IonWorks HT, PatchXpress/manual patch clamp). The following applies: antagonizing the N-type calcium channel; which of Assay Examples 1-3 is not specified. The class given is cell-based. From the text:
(§1) Human Cav2.2 channels were stably expressed in KEK293 cells along with alpha2-delta and beta subunits of voltage-gated calcium channels. An inwardly rectifying potassium channel (Kir2.3) was also expressed in these cells to allow more precise control of the cell membrane potential by extracellular potassium concentration. At low bath potassium concentration, the membrane potential is relatively negative, and is depolarized as the bath potassium concentration is raised. In this way, the bath potassium concentration can be used to regulate the voltage-dependent conformations of the channels. […]
(§2) Calcium influx through Cav2.2 channels is determined using a calcium-sensitive fluorescent dye in combination with a fluorescent plate reader. Fluorescent changes were measured with either a VIPR (Aurora Instruments) or FLIPR (Molecular Devices) plate reader.
(§3) • 1. […] Read cell plate on VIPR instrument, Excitation=480 nm, Emission=535 nm • 9. With VIPR continuously reading, add 0.1 ml (96-well plate) or 0.03 ml (384-well plate) of Depolarization Buffer, which is 2× the final assay concentration, to the cell plate.
Block of N-type calcium channels is evaluated utilizing the IonWorks HT 384 well automated patch clamp electrophysiology device. […]

The target of a further assay is T2, Human Cav2.2 channels (Homo sapiens, UniProt Q00975).
T2 construct: expressed in transfected cells
T2 sequence (Q00975 whole entry): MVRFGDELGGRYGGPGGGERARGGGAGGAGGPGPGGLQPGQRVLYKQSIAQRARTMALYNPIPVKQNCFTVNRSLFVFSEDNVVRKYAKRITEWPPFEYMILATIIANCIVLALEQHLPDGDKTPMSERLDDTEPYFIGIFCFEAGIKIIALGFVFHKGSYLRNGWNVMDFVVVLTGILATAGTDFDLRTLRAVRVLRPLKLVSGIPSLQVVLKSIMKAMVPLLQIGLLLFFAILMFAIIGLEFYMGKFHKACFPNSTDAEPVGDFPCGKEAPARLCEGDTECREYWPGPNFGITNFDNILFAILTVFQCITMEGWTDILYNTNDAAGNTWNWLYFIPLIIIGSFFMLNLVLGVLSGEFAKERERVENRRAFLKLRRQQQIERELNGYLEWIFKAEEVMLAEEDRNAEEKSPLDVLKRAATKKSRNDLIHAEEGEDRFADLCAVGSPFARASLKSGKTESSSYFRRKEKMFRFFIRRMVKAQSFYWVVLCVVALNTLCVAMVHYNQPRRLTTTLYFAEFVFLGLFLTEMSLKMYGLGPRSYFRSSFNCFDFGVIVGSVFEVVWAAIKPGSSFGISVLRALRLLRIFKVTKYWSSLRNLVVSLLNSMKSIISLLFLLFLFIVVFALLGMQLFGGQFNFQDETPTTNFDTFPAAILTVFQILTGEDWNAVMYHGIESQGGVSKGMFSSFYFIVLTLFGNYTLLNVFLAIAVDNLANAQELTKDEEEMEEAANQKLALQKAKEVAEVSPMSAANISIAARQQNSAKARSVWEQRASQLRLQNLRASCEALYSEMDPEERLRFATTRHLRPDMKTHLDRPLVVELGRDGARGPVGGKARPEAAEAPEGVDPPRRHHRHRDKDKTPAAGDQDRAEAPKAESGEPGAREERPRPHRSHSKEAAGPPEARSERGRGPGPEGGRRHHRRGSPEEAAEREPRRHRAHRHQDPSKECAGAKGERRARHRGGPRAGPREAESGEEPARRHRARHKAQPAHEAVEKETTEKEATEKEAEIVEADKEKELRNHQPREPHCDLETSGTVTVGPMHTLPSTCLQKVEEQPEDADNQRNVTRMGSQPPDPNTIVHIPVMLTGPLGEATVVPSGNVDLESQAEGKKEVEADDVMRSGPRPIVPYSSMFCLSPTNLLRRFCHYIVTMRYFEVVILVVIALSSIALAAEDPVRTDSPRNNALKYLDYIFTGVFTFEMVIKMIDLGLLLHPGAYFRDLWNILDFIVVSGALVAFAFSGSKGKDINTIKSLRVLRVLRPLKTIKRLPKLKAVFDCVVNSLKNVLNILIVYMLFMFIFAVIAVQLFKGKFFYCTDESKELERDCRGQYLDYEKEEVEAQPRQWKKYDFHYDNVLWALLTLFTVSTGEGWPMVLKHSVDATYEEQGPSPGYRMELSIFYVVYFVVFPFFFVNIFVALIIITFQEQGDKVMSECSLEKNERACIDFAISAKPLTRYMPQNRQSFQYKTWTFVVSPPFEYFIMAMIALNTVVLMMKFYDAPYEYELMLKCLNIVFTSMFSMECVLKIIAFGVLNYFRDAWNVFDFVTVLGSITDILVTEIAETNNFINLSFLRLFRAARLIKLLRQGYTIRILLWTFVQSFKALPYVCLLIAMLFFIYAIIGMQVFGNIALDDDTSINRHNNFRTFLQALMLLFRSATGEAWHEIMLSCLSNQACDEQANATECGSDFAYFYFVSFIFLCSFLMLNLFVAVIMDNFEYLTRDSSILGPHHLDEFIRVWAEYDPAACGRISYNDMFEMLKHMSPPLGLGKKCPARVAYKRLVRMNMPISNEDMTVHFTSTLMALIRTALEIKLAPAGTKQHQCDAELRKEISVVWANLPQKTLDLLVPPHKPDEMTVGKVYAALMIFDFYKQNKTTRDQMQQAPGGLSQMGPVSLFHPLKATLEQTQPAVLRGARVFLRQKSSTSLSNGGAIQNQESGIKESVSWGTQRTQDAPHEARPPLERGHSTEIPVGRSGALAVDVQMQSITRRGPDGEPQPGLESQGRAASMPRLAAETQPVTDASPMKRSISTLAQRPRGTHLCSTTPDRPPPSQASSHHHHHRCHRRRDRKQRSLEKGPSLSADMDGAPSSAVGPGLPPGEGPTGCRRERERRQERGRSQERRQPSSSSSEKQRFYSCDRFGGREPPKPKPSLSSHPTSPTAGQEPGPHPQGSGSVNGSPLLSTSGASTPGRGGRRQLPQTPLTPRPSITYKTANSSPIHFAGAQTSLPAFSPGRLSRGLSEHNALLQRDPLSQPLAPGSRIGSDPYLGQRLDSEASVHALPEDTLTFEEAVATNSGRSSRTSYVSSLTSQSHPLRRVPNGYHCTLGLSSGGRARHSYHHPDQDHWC
T2 sequence (P54289 25-946 partner limits assumed): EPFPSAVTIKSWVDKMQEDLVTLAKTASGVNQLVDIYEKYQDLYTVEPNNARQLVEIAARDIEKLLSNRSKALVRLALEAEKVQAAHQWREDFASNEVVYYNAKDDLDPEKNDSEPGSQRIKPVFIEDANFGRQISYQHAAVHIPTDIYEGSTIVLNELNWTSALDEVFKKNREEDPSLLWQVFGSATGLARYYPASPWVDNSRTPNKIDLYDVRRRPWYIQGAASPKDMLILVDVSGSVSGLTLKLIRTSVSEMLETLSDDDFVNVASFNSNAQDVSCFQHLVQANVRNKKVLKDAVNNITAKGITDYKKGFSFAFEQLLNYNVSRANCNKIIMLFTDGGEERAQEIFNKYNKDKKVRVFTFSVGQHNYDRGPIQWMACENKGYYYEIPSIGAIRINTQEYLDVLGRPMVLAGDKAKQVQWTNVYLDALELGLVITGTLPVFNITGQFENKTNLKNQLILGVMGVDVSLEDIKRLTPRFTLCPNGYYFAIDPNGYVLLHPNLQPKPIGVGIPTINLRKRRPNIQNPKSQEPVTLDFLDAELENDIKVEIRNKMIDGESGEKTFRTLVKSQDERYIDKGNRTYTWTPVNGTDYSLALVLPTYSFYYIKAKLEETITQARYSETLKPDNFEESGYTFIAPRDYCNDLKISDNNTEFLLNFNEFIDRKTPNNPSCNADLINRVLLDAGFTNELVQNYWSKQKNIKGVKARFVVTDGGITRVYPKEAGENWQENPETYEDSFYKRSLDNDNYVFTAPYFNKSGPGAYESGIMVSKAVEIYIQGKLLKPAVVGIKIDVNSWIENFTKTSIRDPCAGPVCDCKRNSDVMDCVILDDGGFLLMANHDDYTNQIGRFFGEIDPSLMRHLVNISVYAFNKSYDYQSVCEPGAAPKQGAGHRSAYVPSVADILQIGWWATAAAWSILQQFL
T2 sequence (P54289 947-1103 partner limits assumed): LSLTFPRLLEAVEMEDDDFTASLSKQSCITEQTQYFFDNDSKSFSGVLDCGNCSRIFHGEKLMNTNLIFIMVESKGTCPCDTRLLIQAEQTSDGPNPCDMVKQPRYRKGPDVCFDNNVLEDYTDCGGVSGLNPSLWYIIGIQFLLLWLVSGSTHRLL
T2 sequence (P54284 whole entry partner): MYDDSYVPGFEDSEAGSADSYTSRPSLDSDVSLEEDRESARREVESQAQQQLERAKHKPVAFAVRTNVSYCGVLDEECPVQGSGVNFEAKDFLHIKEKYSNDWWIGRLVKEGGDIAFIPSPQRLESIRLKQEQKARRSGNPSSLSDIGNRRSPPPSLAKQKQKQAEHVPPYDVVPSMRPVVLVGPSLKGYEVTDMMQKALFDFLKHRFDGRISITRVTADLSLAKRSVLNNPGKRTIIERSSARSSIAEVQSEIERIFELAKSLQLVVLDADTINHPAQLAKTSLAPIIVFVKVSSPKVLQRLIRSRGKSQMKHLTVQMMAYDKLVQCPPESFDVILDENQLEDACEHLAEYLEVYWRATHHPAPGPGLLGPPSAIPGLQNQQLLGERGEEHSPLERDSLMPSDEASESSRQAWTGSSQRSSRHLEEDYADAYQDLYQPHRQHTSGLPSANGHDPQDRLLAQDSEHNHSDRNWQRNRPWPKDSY
Put plainly: Fluorescent assay for Cav2.2 channels using potassium depolarization to initiate channel opening (Assay Example 1). Type of assay: cell-based. The conditions noted are these: Table 2.
Source text: Fluorescent Assay for Cav2.2 Channels Using Potassium Depolarization to Initiate Channel Opening
as §1, §2, §3

Each structure is given as a SMILES string.

T1 sequence (Q00975 whole entry): as the sequence (Q00975 whole entry) above
T1 sequence (P54289 25-946 partner limits assumed): as the sequence (P54289 25-946 partner limits assumed) above
T1 sequence (P54289 947-1103 partner limits assumed): as the sequence (P54289 947-1103 partner limits assumed) above
T1 sequence (P54284 whole entry partner): as the sequence (P54284 whole entry partner) above

As to `CC(C)([C@H]1CN(c2ccc(C(F)(F)F)cn2)C(=O)CO1)S(=O)(=O)c1cccc(C(F)(F)F)c1` [Example 6, (6R)-6-(1-methyl-1-{[3-(trifluoromethyl)phenyl]sulfonyl}ethyl)-4-[5-(trifluoromethyl)pyridin-2-yl]morpholin-3-one], the IC50 in assay [1] amounted to 1.52 µM. As to `CC(C)([C@H]1CN(c2ccc(C(F)(F)F)cn2)C(=O)CO1)S(=O)(=O)c1cccc(C(F)(F)F)c1` [drawing 26], the IC50 at Human Cav2.2 channels was found to be 1.51 µM. Same read-out and setting: in the case of `CC(C)(C1CN(c2ccc(C(F)(F)F)cc2)C(=O)O1)S(=O)(=O)c1cccc(C(F)(F)F)c1` (stereo not drawn) it was 0.745 µM.
